Measured values reported in ChEMBL document CHEMBL3243940, “Primaquine analogues: derivatives of 4-amino-2-methoxyacridine” (J Med Chem, 1979).

Tests used:
Leishmania donovani [1] = experiment: Antileishmanial activity against amastigotes of Leishmania donovani Khartoum infected in golden hamster assessed as reduction of parasite level in liver at 52 mg/kg bid for 4 days; assay type: functional; design: scale not given: the % may be the effect or the level left
Leishmania donovani [2] = experiment: Antileishmanial activity against amastigotes of Leishmania donovani Khartoum infected in golden hamster assessed as reduction of parasite level in liver at 13 mg/kg bid for 4 days; assay type: functional; design: scale not given: the % may be the effect or the level left
Leishmania donovani [3] = experiment: Ratio of glucantime SD50 to compound SD50 for amastigotes of Leishmania donovani Khartoum infected in golden hamster; assay type: functional
Syrian golden hamster = experiment: Toxicity in amastigotes of Leishmania donovani Khartoum infected golden hamster at 208 mg/kg bid for 4 days; assay type: organism-based, Mesocricetus auratus; design: dose 208 mg/kg; details: in vivo, 96 h

CCN(CC)CCCCCCNc1cc(OC)cc2c(C)c3ccccc3nc12
Activity (Leishmania donovani [1]): 53%
Activity (Leishmania donovani [2]): 36%
Ratio (Leishmania donovani [3]): 0.2
Activity (Syrian golden hamster): Toxic
